From patent publication US20200222474A1, “COMPOSITIONS AND METHODS FOR INCREASING PHYTOCHEMICAL BIOAVAILABLITY AND BIOACTIVITY” (North Carolina State University, priority 2017, published 2020)

System: L. acidophilus NCFM
Experiment: RNA-seq transcriptional analysis of L. acidophilus NCFM growing on plant glycosides
Assay type: cell-based, Lactobacillus acidophilus
[1] = LBA0329 Putative cell division protein, COG D
[2] = LBA0466 Hypothetical protein, COG C
[3] = LBA0500 MSM operon repressor, COG K
[4] = LBA0545 Hypothetical protein, COG L
[5] = LBA0547 Putative site-specific recombinase, COG L
[6] = LBA0573 Putative transcriptional regulator, COG K
[7] = LBA0607 Putative transcriptional regulator, COG K
[8] = LBA0672 Putative phosphate starvation inducible protein stress related, COG J
[9] = LBA0753 Multi-drug-type permease, COG GEPR
[10] = LBA0886 Sugar kinase-putative transcriptional regulator, COG KG
[11] = LBA0887 Hypothetical protein, COG C
[12] = LBA0897 Putative Cro-like protein, COG K
[13] = LBA0910 L-lactate dehydrogenase, COG C
[14] = LBA1021 Putative transcriptional regulator, COG K
[15] = LBA1220 Pyridine mercuric reductase, COG C
[16] = LBA1392 Mucus binding protein precursor Mub, COG J
[17] = LBA1411 Fumarate reductase flavoprotein subunit, COG CS
[18] = LBA1436 Glycerol uptake facilitator protein, COG G
[19] = LBA1457 Galactose-1-epimerase, COG G
[20] = LBA1458 Galactose-1-phosphate uridylyltransferase, COG G
[21] = LBA1462 Beta-galactosidase, COG G
[22] = LBA1463 Lactose permease, COG G
[23] = LBA1465 Transcription repressor of beta-galactosidasegene, COG K
[24] = LBA1467 Beta-galactosidase large subunit (lactase), COG G
[25] = LBA1468 Beta-galactosidase small subunit, COG G
[26] = LBA1481 D-ribose-binding protein precursor, COG G
[27] = LBA1482 Ribose ABC transporter, COG G
[28] = LBA1483 Ribose ABC transporter ATP binding protein, COG G
[29] = LBA1484 D-ribose pyranase, COG G
[30] = LBA1494 Lincomycin-resistance protein, COG GEPR
[31] = LBA1607 Phosphatidylserine decarboxylase precursor, COG I
[32] = LBA1632 NAD-dependent aldehyde dehydrogenase, COG C
[33] = LBA1653 Nicotinamide mononucleotide, COG H
[34] = LBA1684 Putative PTS system IIA component, COG G
[35] = LBA1689 Maltose-6′-phosphate Oucosidase, COG G
[36] = LBA1700 Transcriptional regulator-type, COG K
[37] = LBA1701 Melibiose operon regulatory protein, COG K
[38] = LBA1705 PTS system IIBC component, COG G
[39] = LBA1708 Transcriptional antiterminator, COG K
[40] = LBA1710 Thermostable pullulanase, COG G
[41] = LBA1812 Alpha-glucosidase II, COG G
[42] = LBA1870 Maltose phosphorylase, COG G
[43] = LBA1872 Oligo-1,6-glucosidase, COG G

OC[C@H]1O[C@@H](O[C@H]2[C@H](O)[C@@H](O)[C@@H](O)O[C@@H]2CO)[C@H](O)[C@@H](O)[C@H]1O [Lac] was tested, and the “Log2 differential normalized TPM ratio compared to glucose” value (from here on “Log2 differential normalized TPM ratio”) (LBA0016 Fructokinase, COG KG) was 1.2, the “Transcripts per million (rpm)” value (LBA0016 Fructokinase, COG KG) was 211.4 rpm and the “Log2 differential normalized TPM ratio” value [1] was 0.4. The “Transcripts per million (rpm)” value [1] was 22.1 rpm, the “Log2 differential normalized TPM ratio” value [2] was 1.5 and the “Transcripts per million (rpm)” value [2] was 270 rpm. For the same compound, the “Log2 differential normalized TPM ratio” value [3] was 1.6, the “Transcripts per million (rpm)” value [3] was 162 rpm and the “Log2 differential normalized TPM ratio” value [4] was 2. For the same compound, the “Transcripts per million (rpm)” value [4] was 306 rpm, the “Log2 differential normalized TPM ratio” value [5] was 1.7 and the “Transcripts per million (rpm)” value [5] was 37.9 rpm. The “Log2 differential normalized TPM ratio” value [6] was 0.1, the “Transcripts per million (rpm)” value [6] was 98.5 rpm and the “Log2 differential normalized TPM ratio” value [7] was 0.5. The “Transcripts per million (rpm)” value [7] was 66.9 rpm, the “Log2 differential normalized TPM ratio” value [8] was 0.8 and the “Transcripts per million (rpm)” value [8] was 2957.4 rpm. For the same compound, the “Log2 differential normalized TPM ratio” value [9] was −0.8, the “Transcripts per million (rpm)” value [9] was 29.5 rpm and the “Log2 differential normalized TPM ratio” value [10] was 0.2. The “Transcripts per million (rpm)” value [10] was 7.7 rpm, the “Log2 differential normalized TPM ratio” value [11] was 1.2 and the “Transcripts per million (rpm)” value [11] was 133.7 rpm. For the same compound, the “Log2 differential normalized TPM ratio” value [12] was −2.4, the “Transcripts per million (rpm)” value [12] was 0.5 rpm and the “Log2 differential normalized TPM ratio” value [13] was 1. The “Transcripts per million (rpm)” value [13] was 257.2 rpm, the “Log2 differential normalized TPM ratio” value [14] was 0.3 and the “Transcripts per million (rpm)” value [14] was 186.9 rpm. For the same compound, the “Log2 differential normalized TPM ratio” value [15] was 1, the “Transcripts per million (rpm)” value [15] was 394.7 rpm and the “Log2 differential normalized TPM ratio” value [16] was −0.2. For the same compound, the “Transcripts per million (rpm)” value [16] was 88.9 rpm, the “Log2 differential normalized TPM ratio” value [17] was 1.1 and the “Transcripts per million (rpm)” value [17] was 4.7 rpm. For the same compound, the “Log2 differential normalized TPM ratio” value [18] was 3.8, the “Transcripts per million (rpm)” value [18] was 37 rpm and the “Log2 differential normalized TPM ratio” value [19] was 5.6. The “Transcripts per million (rpm)” value [19] was 732.6 rpm, the “Log2 differential normalized TPM ratio” value [20] was 5.7 and the “Transcripts per million (rpm)” value [20] was 679.9 rpm. The “Log2 differential normalized TPM ratio” value (LBA1459 Galactokinase, COG G) was 4.6, the “Transcripts per million (rpm)” value (LBA1459 Galactokinase, COG G) was 610.1 rpm and the “Log2 differential normalized TPM ratio” value [21] was 6. The “Transcripts per million (rpm)” value [21] was 1123.2 rpm, the “Log2 differential normalized TPM ratio” value [22] was 4.7 and the “Transcripts per million (rpm)” value [22] was 1427.3 rpm. The “Log2 differential normalized TPM ratio” value (LBA1464 Transposase, COG L) was 2.4, the “Transcripts per million (rpm)” value (LBA1464 Transposase, COG L) was 956 rpm and the “Log2 differential normalized TPM ratio” value [23] was 3.1. The “Transcripts per million (rpm)” value [23] was 485.8 rpm, the “Log2 differential normalized TPM ratio” value [24] was 8.8 and the “Transcripts per million (rpm)” value [24] was 2333 rpm. The “Log2 differential normalized TPM ratio” value [25] was 6.4, the “Transcripts per million (rpm)” value [25] was 1790.7 rpm and the “Log2 differential normalized TPM ratio” value [26] was 0.7. For the same compound, the “Transcripts per million (rpm)” value [26] was 8.1 rpm, the “Log2 differential normalized TPM ratio” value [27] was 1 and the “Transcripts per million (rpm)” value [27] was 7.9 rpm. For the same compound, the “Log2 differential normalized TPM ratio” value [28] was 1, the “Transcripts per million (rpm)” value [28] was 6.4 rpm and the “Log2 differential normalized TPM ratio” value [29] was 0.6. The “Transcripts per million (rpm)” value [29] was 6.1 rpm, the “Log2 differential normalized TPM ratio” value (LBA1485 Ribokinase, COG G) was 0.7 and the “Transcripts per million (rpm)” value (LBA1485 Ribokinase, COG G) was 5.2 rpm. For the same compound, the “Log2 differential normalized TPM ratio” value [30] was 0.1, the “Transcripts per million (rpm)” value [30] was 5.7 rpm and the “Log2 differential normalized TPM ratio” value [31] was 1. For the same compound, the “Transcripts per million (rpm)” value [31] was 41.1 rpm, the “Log2 differential normalized TPM ratio” value [32] was 1.8 and the “Transcripts per million (rpm)” value [32] was 253.3 rpm. For the same compound, the “Log2 differential normalized TPM ratio” value [33] was 0.6, the “Transcripts per million (rpm)” value [33] was 369.4 rpm and the “Log2 differential normalized TPM ratio” value [34] was 1.9. For the same compound, the “Transcripts per million (rpm)” value [34] was 48 rpm, the “Log2 differential normalized TPM ratio” value [35] was 1.4 and the “Transcripts per million (rpm)” value [35] was 9.7 rpm. For the same compound, the “Log2 differential normalized TPM ratio” value [36] was 0.4, the “Transcripts per million (rpm)” value [36] was 28.8 rpm and the “Log2 differential normalized TPM ratio” value [37] was 0.8. The “Transcripts per million (rpm)” value [37] was 69.9 rpm, the “Log2 differential normalized TPM ratio” value [38] was 0.8 and the “Transcripts per million (rpm)” value [38] was 6.1 rpm. The “Log2 differential normalized TPM ratio” value [39] was 1.4, the “Transcripts per million (rpm)” value [39] was 1.6 rpm and the “Log2 differential normalized TPM ratio” value [40] was 0.4. For the same compound, the “Transcripts per million (rpm)” value [40] was 9.9 rpm, the “Log2 differential normalized TPM ratio” value (LBA1723 Transposase, COG L) was 0.2 and the “Transcripts per million (rpm)” value (LBA1723 Transposase, COG L) was 62 rpm. The “Log2 differential normalized TPM ratio” value [41] was 2, the “Transcripts per million (rpm)” value [41] was 68.8 rpm and the “Log2 differential normalized TPM ratio” value [42] was −1.2. For the same compound, the “Transcripts per million (rpm)” value [42] was 46.3 rpm, the “Log2 differential normalized TPM ratio” value (LBA1871 Neopullulanase, COG G) was 0.7 and the “Transcripts per million (rpm)” value (LBA1871 Neopullulanase, COG G) was 4.5 rpm. For the same compound, the “Log2 differential normalized TPM ratio” value [43] was 0.4, the “Transcripts per million (rpm)” value [43] was 4 rpm and the “Log2 differential normalized TPM ratio” value (LBA1873 Acetate kinase, COG C) was 1.4. The “Transcripts per million (rpm)” value (LBA1873 Acetate kinase, COG C) was 9 rpm.
